Data as given in patent US20110015066A1, “Herbicidal Composition” (priority 2008, published 2011).

What was measured:
Susceptible plants = conditions: after post-emergence treatment; cited from earlier work
broad leaf weeds = assay: Field trial in wheat: weed population and biomass of broad leaf weeds; format: in vivo
Procedure: Parts and percentages are by weight unless otherwise indicated. Field tests were made at various trial sites. The performance of the new combination herbicide according to the present invention (Clodinafop 15% and metsulfuron methyl 1%), Metsulfuron methyl 20% WP and Clodinafop-propargyl 15% WP was evaluated against weed flora in wheat crop during rabi season. Recommended package of practices for wheat crop was followed to raise the crop. The herbicide treatments were applied as post emergence spray at 35 days after sowing (DAS). The data on weed population (number/m^2) and dry matter (gm/m^2) was taken after 60 days after sowing and at the harvest. Similar yields (quintal/hectare i.e. q/ha.) and yield attributed parameters like plant height, number of effective tiller, number of grain per ear-head, test weight were recorded at harvest. A statistical analysis of the entire data was carried out.
The major weed flora recorded in the experimental field were grasses like Phalaris minor and Avena fatua and broad leaf weeds namely Chenopodium album, Rumex sp., Convolvulus arvensis, Melilotus alba, Medicago denticulata, Fumaria sp. Vicia sativa and Anagalis arvensis.

[1] = Accelerated Heat Stability of compositions: active ingredient content before and after 14 days; format: physicochemical; conditions: 1 %
Procedure: The numbers of formulations were made up as described in above examples. The concentration of Clodinafop propargyl (15%)+Metsulfuron methyl (1%) 16% WP was tested for its active stability at elevated temperature (54±2° C.) and at 3 different pH ranges as shown below.
The storage stability of the compositions according the present invention was compared with the storage stability of compositions individually and in combination as Tank, mix and plant mixes. The term Tank mix means that clodinafop-propargyl and metsulfuron methyl are mixed in the tank at the time of spraying. The term plant mix means that ready mix of the clodinafop-propargyl and metsulfuron methyl are diluted in the tank before spraying.

COC(=O)c1ccccc1S(=O)(=O)NC(=O)Nc1nc(C)nc(OC)n1 [metsulfuron methyl, methyl 2-(4-methoxy-6-methyl-1,3,5-triazin-2-ylcarbamoylsulfamoyl)benzoate]
time in which susceptible plants are killed (Susceptible plants): 7 to 21 days | control of broad leaf weeds (in words) (broad leaf weeds): superior control of broad leaf weeds only | Metsulfuron methyl % degradation ([1]; pH 4.5): 24.67% | Metsulfuron methyl % degradation ([1]; pH 6.8): 12.64% | Metsulfuron methyl % degradation ([1]; pH 8.5): 4.82%
